Laboratory results published in ChEMBL document CHEMBL1909046, “DrugMatrix in vitro pharmacology data”.

How the values were obtained:
[1] = DRUGMATRIX: Platelet-Derived Growth Factor (PDGF) radioligand binding (ligand: [125I] PDGF); type: cell-based; conditions: nih3t3; Not Active = under 50% inhibition at 10 µM
[2] = DRUGMATRIX: Glutamate, Kainate radioligand binding (ligand: [3H] Kainic acid); type: cell membranes, Rattus norvegicus, Wistar, Brain, Membrane; conditions: Not Active = under 50% inhibition at 10 µM
[3] = target: cGMP-specific 3',5'-cyclic phosphodiesterase (Homo sapiens, UniProt O76074); test: DRUGMATRIX: Phosphodiesterase PDE5 enzyme inhibition (substrate: [3H]cGMP + cGMP); type: tissue-based; conditions: platelet; Not Active = under 50% inhibition at 10 µM
[4] = target: T1, 3-hydroxy-3-methylglutaryl-coenzyme A reductase (Homo sapiens, UniProt P04035); design: species or system Escherichia coli;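 note: enzyme inhibition assay of HMG-CoA reductase using radiolabeled [14C]HMG-CoA as substrate; in other assays of this panel Not Active means under 50% inhibition at 10 µM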
T1 sequence (P04035 whole entry): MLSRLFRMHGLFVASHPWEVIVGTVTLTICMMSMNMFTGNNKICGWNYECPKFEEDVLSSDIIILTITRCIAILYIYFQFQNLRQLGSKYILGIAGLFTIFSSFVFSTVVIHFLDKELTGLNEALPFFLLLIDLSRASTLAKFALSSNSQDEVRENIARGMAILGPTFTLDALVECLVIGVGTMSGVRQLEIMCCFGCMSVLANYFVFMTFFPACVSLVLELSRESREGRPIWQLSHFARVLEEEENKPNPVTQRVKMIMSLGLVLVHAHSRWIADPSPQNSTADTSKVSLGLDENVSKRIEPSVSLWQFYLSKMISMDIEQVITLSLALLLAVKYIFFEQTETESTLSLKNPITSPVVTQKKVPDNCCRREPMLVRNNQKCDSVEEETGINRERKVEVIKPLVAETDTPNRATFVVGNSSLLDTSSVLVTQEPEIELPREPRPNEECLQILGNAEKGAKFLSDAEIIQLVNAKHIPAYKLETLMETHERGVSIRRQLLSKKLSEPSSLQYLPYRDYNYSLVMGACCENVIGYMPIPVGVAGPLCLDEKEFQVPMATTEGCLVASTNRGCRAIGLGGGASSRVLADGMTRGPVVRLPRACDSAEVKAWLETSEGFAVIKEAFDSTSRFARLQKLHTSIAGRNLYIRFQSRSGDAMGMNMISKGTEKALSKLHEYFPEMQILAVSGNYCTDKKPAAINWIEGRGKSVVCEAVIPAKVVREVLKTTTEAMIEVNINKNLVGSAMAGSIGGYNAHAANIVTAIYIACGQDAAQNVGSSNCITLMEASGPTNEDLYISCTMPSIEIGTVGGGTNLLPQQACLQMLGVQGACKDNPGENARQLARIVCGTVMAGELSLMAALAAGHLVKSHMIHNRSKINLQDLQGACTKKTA

[5] = target: T2, Nitric oxide synthase, inducible (Mus musculus, UniProt P29477); design: species or system Escherichia coli;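 note: inhibition of iNOS enzyme activity measured with L-arginine as substrate; in other assays of this panel Not Active means under 50% inhibition at 10 µM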
T2 sequence (P29477 whole entry): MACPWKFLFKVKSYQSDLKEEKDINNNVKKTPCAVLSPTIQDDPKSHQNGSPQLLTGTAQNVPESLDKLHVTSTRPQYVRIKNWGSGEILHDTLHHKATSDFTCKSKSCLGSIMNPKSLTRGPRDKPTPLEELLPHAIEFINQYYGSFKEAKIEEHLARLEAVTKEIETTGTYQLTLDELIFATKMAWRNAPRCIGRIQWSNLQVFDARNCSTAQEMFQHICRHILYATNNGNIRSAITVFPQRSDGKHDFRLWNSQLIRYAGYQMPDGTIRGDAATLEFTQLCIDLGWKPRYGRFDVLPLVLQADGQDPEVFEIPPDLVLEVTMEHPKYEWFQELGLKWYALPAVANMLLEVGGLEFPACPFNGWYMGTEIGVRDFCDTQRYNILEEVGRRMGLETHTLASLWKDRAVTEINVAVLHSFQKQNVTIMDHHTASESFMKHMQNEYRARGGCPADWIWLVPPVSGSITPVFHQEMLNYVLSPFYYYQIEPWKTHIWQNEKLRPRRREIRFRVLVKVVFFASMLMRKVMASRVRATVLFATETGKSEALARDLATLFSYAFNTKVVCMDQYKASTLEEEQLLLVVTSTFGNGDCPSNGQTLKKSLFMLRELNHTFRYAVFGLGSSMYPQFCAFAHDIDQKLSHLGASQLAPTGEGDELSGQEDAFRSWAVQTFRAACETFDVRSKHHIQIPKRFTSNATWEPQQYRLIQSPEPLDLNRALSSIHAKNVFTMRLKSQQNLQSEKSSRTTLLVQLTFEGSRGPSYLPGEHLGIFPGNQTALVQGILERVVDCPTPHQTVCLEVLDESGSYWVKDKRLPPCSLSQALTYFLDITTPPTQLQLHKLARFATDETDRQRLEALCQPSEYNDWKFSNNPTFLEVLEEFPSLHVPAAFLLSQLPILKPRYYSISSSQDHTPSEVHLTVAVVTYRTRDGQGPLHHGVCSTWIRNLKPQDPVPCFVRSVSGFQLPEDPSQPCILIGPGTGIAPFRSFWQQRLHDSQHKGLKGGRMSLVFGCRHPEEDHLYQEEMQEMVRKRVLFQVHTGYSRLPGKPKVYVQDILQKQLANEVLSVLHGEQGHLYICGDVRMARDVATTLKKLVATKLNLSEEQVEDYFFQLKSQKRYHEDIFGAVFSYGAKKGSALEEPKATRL

[6] = DRUGMATRIX: Interleukin IL-1 radioligand binding (ligand: [125I] interleukin 1beta); type: cell membranes, Membrane; conditions: nih3t3; Not Active = under 50% inhibition at 10 µM
Mu-type opioid receptor = Mu-type opioid receptor (Homo sapiens, UniProt P35372); test: DRUGMATRIX: Opiate mu (OP3, MOP) radioligand binding (ligand: [3H] Diprenorphine); type: cell membranes, CHO-K1, Membrane; conditions: cho-k1; Not Active = under 50% inhibition at 10 µM
[7] = DRUGMATRIX: Nicotinic Acetylcholine radioligand binding (ligand: [125I] Epibatidine); type: cell membranes, Membrane; conditions: imr-32; Not Active = under 50% inhibition at 10 µM
[8] = target: Prostaglandin G/H synthase 1 (Homo sapiens, UniProt P23219); test: biochemical; type: tissue-based, Platelet; conditions: platelet;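 note: inhibition of COX-1 enzyme activity, with arachidonic acid supplied as substrate; in other assays of this panel Not Active means under 50% inhibition at 10 µM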
Prostaglandin G/H synthase 1, sequence (P23219 whole entry): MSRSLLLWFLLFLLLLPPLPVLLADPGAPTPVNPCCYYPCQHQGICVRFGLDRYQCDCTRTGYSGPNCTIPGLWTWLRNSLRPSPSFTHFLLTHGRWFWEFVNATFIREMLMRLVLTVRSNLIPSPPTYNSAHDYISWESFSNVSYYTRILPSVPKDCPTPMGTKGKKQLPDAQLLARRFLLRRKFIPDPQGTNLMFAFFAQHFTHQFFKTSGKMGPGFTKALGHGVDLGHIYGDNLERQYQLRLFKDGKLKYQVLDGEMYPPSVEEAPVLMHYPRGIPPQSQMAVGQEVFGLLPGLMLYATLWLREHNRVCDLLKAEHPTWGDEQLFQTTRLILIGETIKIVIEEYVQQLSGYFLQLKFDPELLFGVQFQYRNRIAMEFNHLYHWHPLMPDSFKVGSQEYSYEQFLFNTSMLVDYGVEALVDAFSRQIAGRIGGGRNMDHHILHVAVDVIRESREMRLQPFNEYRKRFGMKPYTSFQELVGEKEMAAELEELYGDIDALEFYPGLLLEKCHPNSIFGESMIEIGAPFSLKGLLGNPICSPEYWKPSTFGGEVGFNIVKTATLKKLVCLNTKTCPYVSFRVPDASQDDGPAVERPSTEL

Mu-type opioid receptor, sequence (P35372 whole entry): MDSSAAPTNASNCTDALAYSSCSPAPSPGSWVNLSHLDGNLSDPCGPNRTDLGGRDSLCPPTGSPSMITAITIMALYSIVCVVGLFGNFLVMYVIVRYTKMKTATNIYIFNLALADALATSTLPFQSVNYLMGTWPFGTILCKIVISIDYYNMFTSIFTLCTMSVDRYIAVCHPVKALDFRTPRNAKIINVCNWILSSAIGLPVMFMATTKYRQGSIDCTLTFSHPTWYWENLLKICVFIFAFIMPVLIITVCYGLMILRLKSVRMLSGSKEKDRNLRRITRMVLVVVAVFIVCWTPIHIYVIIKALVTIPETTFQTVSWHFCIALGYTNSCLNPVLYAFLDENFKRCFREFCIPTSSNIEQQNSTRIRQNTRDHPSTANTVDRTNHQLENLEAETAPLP

CCOC(=O)N1CCC(=C2c3ccc(Cl)cc3CCc3cccnc32)CC1 [LORATADINE]
Not Active: IC50 [1] | Ki [1] | IC50 [2] | Ki [2] | IC50 [3] | IC50 [4] | IC50 [5] | IC50 [6] | Ki [6] | IC50 (Mu-type opioid receptor) | IC50 [7] | Ki [7] | IC50 [8]

c1ccc([C@H]2CN3CCSC3=N2)cc1 [LEVAMISOLE]
Not Active: IC50 [1] | Ki [1] | IC50 [2] | Ki [2] | IC50 [3] | IC50 [4] | IC50 [5] | IC50 [6] | Ki [6] | IC50 (Mu-type opioid receptor) | IC50 [7] | Ki [7] | IC50 [8]

CO[C@H]1/C=C/O[C@@]2(C)Oc3c(C)c(O)c4c(O)c(c(/C=N/N5CCN(C)CC5)c(O)c4c3C2=O)NC(=O)/C(C)=C\C=C\[C@H](C)[C@H](O)[C@@H](C)[C@@H](O)[C@@H](C)[C@H](OC(C)=O)[C@@H]1C [RIFAMPIN]
Not Active: IC50 [1] | Ki [1] | IC50 [2] | Ki [2] | IC50 [3] | IC50 [4] | IC50 [5] | IC50 [6] | Ki [6] | IC50 (Mu-type opioid receptor) | IC50 [7] | Ki [7] | IC50 [8]

Cc1oncc1C(=O)Nc1ccc(C(F)(F)F)cc1 [LEFLUNOMIDE]
Not Active: IC50 [1] | Ki [1] | IC50 [2] | Ki [2] | IC50 [3] | IC50 [4] | IC50 [5] | IC50 [6] | Ki [6] | IC50 (Mu-type opioid receptor) | IC50 [7] | Ki [7] | IC50 [8]

N#CC(C#N)=Cc1ccc(O)c(O)c1 [TYRPHOSTIN 23]
Not Active: IC50 [1] | Ki [1] | IC50 [2] | Ki [2] | IC50 [3] | IC50 [4] | IC50 [5] | IC50 [6] | Ki [6] | IC50 (Mu-type opioid receptor) | IC50 [7] | Ki [7] | IC50 [8]
